US20230167170A1, “COMPOSITIONS COMPRISING ANTI-VEGF AND NANOPARTICLES AND METHODS OF USING THE SAME FOR THE TREATMENT OF ABNORMAL OR EXCESSIVE ANGIOGENESIS” (Cellviva, LLC, priority 2020, published 2023)

Test system: pyogenic granuloma lesion
Assay: Treatment of pyogenic granuloma after pterygiectomy and amniotic membrane graft with bevacizumab combination therapy (patient cases)
Type: in vivo, human
Procedure: A topical anesthetic (proparacaine 0.5% eye drops or Alcaine manufactured by Alcon Laboratories, Inc.) was applied to the eye following recent pterygiectomy and amniotic membrane graft surgery. The patients were examined to identify any abnormal grown on the eye. […] A syringe containing approximately 0.05 mL of bevacizumab ([…]) was injected into the eye and the plunger was drawn back to determine if blood was present in the syringe hub. […] Bevacizumab was then injected into the pyogenic granuloma lesion and/or in areas adjacent to the lesion where blood vessels were dilated and numerous. If bleeding occurred (e.g., in the form of subconjunctival or subcutaneous hematoma), tamponade with Q-tips was performed until bleeding stopped; then injection was resumed. The anti-inflammatory steroid drug and/or NSAID were administered either before or after the bevacizumab injection. The anti-inflammatory steroid drug and/or NSAID were administered by injection and/or via eye drops. If the anti-inflammatory steroid drug and/or NSAID was administered by injection, it was done following a similar process as described above for the bevacizumab injection. A syringe containing approximately 0.03 mL triamcinolone injection (40 mg/mL) was injected into the pyogenic granuloma lesion and the plunger was drawn back to determine if blood was present in the syringe hub. […] The anti-inflammatory steroid drug or NSAID was injected into the pyogenic granuloma lesion and/or in areas adjacent to the lesion where blood vessels were dilated and numerous. If bleeding occurred (e.g., in the form of subconjunctival or subcutaneous hematoma), tamponade with Q-tips was performed until bleeding stopped; then injection was resumed. If the anti-inflammatory steroid drug or NSAID was delivered by eyedrops, the steroid eye drops were given for approximately 6 weeks 1 to 4 times a day (every 6 hours) or once every hour (24 drops/day). NSAID eye drops were given 4 times a day every 6 hours for 3 to 6 months. Patients were followed up with to monitor for appearance of new pyogenic granuloma. The presence of new pyogenic granuloma was an indication for further treatment (e.g. with injection and/or eye drops). In some cases, during the first surgery to remove pterygium, the pterygium was only partially removed to prevent necrosis). Thus, in some patients, additional surgeries were subsequently performed to remove remaining sections of the pterygium, resulting in additional pyogenic granuloma. Two patients (Patients 1 and 2) underwent surgery to remove primary pterygium (pterygiectomy) from the cornea of one or both eyes followed by amniotic membrane graft surgery and were treated as described below.

[1] = Patient 2, left eye, 1-month follow-up visit, triamcinolone day 98, bevacizumab day 100

## bevacizumab
Patient 1, right eye, 30 days after day 104, triamcinolone day 90, bevacizumab day 97
  resolution of pyogenic granuloma: completely resolved
Patient 1, right eye, day 104 after surgery, triamcinolone 0.03 mL (40 mg/mL) day 90, then bevacizumab 0.05 mL (1.25 mg/mL) day 97, both into the lesion
  pyogenic granuloma size: considerably smaller in circumference
Patient 1, right eye, day 104 after surgery, triamcinolone day 90, bevacizumab day 97
  hyperemia of pyogenic granuloma: no evidence of hyperemia
Patient 1, combination therapy of bevacizumab and an anti-inflammatory steroid (injected)
  pyogenic granuloma lesions, stated conclusion: inhibited
[1]
  recurrence of pyogenic granuloma: no evidence of recurrence
  resolution of pyogenic granuloma: completely resolved
Patient 2, left eye, within two weeks of bevacizumab injection, triamcinolone 0.03 mL (40 mg/mL) day 98, bevacizumab 0.05 mL (1.25 mg/mL) day 100
  pyogenic granuloma size: significantly smaller
Patient 2, left eye, within two weeks of bevacizumab injection, triamcinolone day 98, bevacizumab day 100
  erythema of pyogenic granuloma: less erythematous
Patient 2, combination therapy of bevacizumab and an anti-inflammatory steroid (injected or topical)
  pyogenic granuloma lesions, stated conclusion: inhibited
Patient 3, right eye, day 86, triamcinolone 0.03 mL (40 mg/mL) day 60, bevacizumab 0.05 mL (1.25 mg/mL) day 68, FIG. 4
  resolution of pyogenic granuloma: completely resolved
Patient 3, combination therapy of bevacizumab, an anti-inflammatory steroid (injected or topical) and a topical NSAID
  pyogenic granuloma, stated conclusion: eliminated
Patient 3, combination therapy of bevacizumab, anti-inflammatory steroid and topical NSAID
  combination therapy compared with bevacizumab alone: superior to treatment with bevacizumab alone
Patient's eye 18 days after injection of both Kenalog and bevacizumab, FIG. 4
  pyogenic granuloma lesion after steroid and anti-VEGF injection: significant reduction in the pyogenic granuloma lesion
